The results in this text go back to US10800792B2, “Inhibitors of Bruton's tyrosine kinase and method of their use” (JANSSEN PHARMACEUTICA NV, priority 2015, dated 2020).

For the assay, the target named is unphosphorylated-BTK kinase domain (UP-BTK), GST-tagged human BTK (389-659aa) (Homo sapiens (Human), UniProt Q06187). Put plainly: BTK kinase Lanthascreen binding assay. The conditions noted are these: pIC50 = negative log of the IC50 in molar; 60 minutes incubation, 50 nM Tracer 236. Put shortly: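 Lanthascreen competition binding; test compound vs fluorescent tracer on unphosphorylated BTK. Output: pIC50 (−log IC50, M).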
Sequence of unphosphorylated-BTK kinase domain (UP-BTK), GST-tagged human BTK (389-659aa) (Q06187 389-659): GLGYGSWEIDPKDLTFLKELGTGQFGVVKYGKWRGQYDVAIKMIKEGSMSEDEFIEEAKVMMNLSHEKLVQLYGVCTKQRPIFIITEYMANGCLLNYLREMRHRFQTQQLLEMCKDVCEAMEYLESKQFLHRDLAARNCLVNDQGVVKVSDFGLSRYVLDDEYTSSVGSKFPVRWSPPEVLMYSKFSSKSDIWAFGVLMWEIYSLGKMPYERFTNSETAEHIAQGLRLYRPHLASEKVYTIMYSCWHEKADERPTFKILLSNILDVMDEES

`COC[C@@H](O)C(=O)N1CCC[C@@H](NC(=O)c2sc3nccc4c3c2NC(=O)N4c2ccc(Oc3ccccc3)cc2C)C1` [Example 143, N—((R)-1-((R)-2-Hydroxy-3-methoxypropanol)piperidin-3-yl)-5-(2-methyl-4-phenoxyphenyl)-4-oxo-4,5-dihydro-3H-1-thia-3,5,8-triazaacenaphthylene-2-carboxamide]: the “BTK_I_binding pIC50” value is on record as 7.3.
`C=C(C(=O)N1CCC[C@@H](NC(=O)c2sc3nccc4c3c2NC(=O)N4c2ccc(Oc3ccccc3)cc2C)C1)C(F)(F)F` [Example 144, (R)-5-(2-Methyl-4-phenoxyphenyl)-4-oxo-N-(1-(2-(trifluoromethyl)acryloyl)piperidin-3-yl)-4,5-dihydro-3H-1-thia-3,5,8-triazaacenaphthylene-2-carboxamide]: the “BTK_I_binding pIC50” value is reported as 7.5.
With `Cc1cc(Oc2ccccc2)ccc1N1C(=O)Nc2c(C(=O)N[C@@H]3CCCN(C(=O)[C@@H]4CCN(C)C4)C3)sc3nccc1c23` [Example 145, 5-(2-Methyl-4-phenoxyphenyl)-N—((R)-1-((R)-1-methylpyrrolidine-3-carbonyl)piperidin-3-yl)-4-oxo-4,5-dihydro-3H-1-thia-3,5,8-triazaacenaphthylene-2-carboxamide] the figure was 7.0.
In the case of `Cc1cc(Oc2ccccc2)ccc1N1C(=O)Nc2c(C(=O)N[C@@H]3CCCN(C(=O)CCS(C)(=O)=O)C3)sc3nccc1c23` [Example 146, (R)-5-(2-Methyl-4-phenoxyphenyl)-N-(1-(3-(methylsulfonyl)propanoyl)piperidin-3-yl)-4-oxo-4,5-dihydro-3H-1-thia-3,5,8-triazaacenaphthylene-2-carboxamide], the “BTK_I_binding pIC50” value was determined as 7.4.
For `Cc1ccccc1Oc1ccc(N2C(=O)Nc3c(C(=O)N[C@@H]4CCCN(C)C4)sc4nccc2c34)c(C)c1` [Example 148, (R)-5-(2-Methyl-4-(o-tolyloxy)phenyl)-N-(1-methylpiperidin-3-yl)-4-oxo-4,5-dihydro-3H-1-thia-3,5,8-triazaacenaphthylene-2-carboxamide], the “BTK_I_binding pIC50” value is 6.9.
With `Cc1cc(Oc2ccccc2)ccc1N1C(=O)Nc2c(C(=O)N[C@@H]3CCN(C4CC4)C3)sc3nccc1c23` [Example 149, (R)—N-(1-Cyclopropylpyrrolidin-3-yl)-5-(2-methyl-4-phenoxyphenyl)-4-oxo-4,5-dihydro-3H-1-thia-3,5,8-triazaacenaphthylene-2-carboxamide] the figure was 6.8; with `Cc1cc(Oc2ccccc2)ccc1N1C(=O)Nc2c(C(=O)N[C@@H]3CCCN(C(=O)/C(C#N)=C/C(C)(C)N4CCCCC4)C3)sc3nccc1c23` [Example 150, (R,E)-N-(1-(2-Cyano-4-methyl-4-(piperidin-1-yl)pent-2-enoyl)piperidin-3-yl)-5-(2-methyl-4-phenoxyphenyl)-4-oxo-4,5-dihydro-3H-1-thia-3,5,8-triazaacenaphthylene-2-carboxamide], 6.9.
For `Cc1cc(Oc2ccccc2)ccc1N1C(=O)Nc2c(C(=O)N[C@@H]3CCCN(C(=O)CN)C3)sc3nccc1c23` [Example 151, (R)—N-(1-(2-Aminoacetyl)piperidin-3-yl)-5-(2-methyl-4-phenoxyphenyl)-4-oxo-4,5-dihydro-3H-1-thia-3,5,8-triazaacenaphthylene-2-carboxamide], the “BTK_I_binding pIC50” value worked out at 7.2.
The value for `Cc1cc(Oc2ccccc2)ccc1N1C(=O)Nc2c(C(=O)N[C@@H]3CCCN(C(=O)/C(C#N)=C/C(C)(C)NC4CC4)C3)sc3nccc1c23` [Example 152, (R,E)-N-(1-(2-Cyano-4-(cyclopropylamino)-4-methylpent-2-enoyl)piperidin-3-yl)-5-(2-methyl-4-phenoxyphenyl)-4-oxo-4,5-dihydro-3H-1-thia-3,5,8-triazaacenaphthylene-2-carboxamide] was 7.3.
In the case of `Cc1cc(Oc2ccccc2)ccc1N1C(=O)Nc2c(C(=O)N[C@H]3CNC[C@H]3F)sc3nccc1c23` [Example 154, N-((3S,4R)-4-Fluoropyrrolidin-3-yl)-5-(2-methyl-4-phenoxyphenyl)-4-oxo-4,5-dihydro-3H-1-thia-3,5,8-triazaacenaphthylene-2-carboxamide], the “BTK_I_binding pIC50” value was 7.2.
The value for `COC(C)CC(=O)N1CCC[C@@H](NC(=O)c2sc3nccc4c3c2NC(=O)N4c2ccc(Oc3ccccc3)cc2C)C1` (stereo partly drawn) [Example 155, N-((3R)-1-(3-Methoxybutanoyl)piperidin-3-yl)-5-(2-methyl-4-phenoxyphenyl)-4-oxo-4,5-dihydro-3H-1-thia-3,5,8-triazaacenaphthylene-2-carboxamide] was 7.0; that for `COC[C@H](C)C(=O)N1CCC[C@@H](NC(=O)c2sc3nccc4c3c2NC(=O)N4c2ccc(Oc3ccccc3)cc2C)C1` [Example 156, N—((R)-1-((S)-3-Methoxy-2-methylpropanoyl)piperidin-3-yl)-5-(2-methyl-4-phenoxyphenyl)-4-oxo-4,5-dihydro-3H-1-thia-3,5,8-triazaacenaphthylene-2-carboxamide] was 7.1.
Take `CCOc1ccccc1Oc1ccc(N2C(=O)Nc3c(C(=O)N[C@@H]4CCCN(C)C4)sc4nccc2c34)c(C)c1` [Example 157, (R)-5-(4-(2-Ethoxyphenoxy)-2-methylphenyl)-N-(1-methylpiperidin-3-yl)-4-oxo-4,5-dihydro-3H-1-thia-3,5,8-triazaacenaphthylene-2-carboxamide]: the “BTK_I_binding pIC50” value was found to be 6.6.
As for `COCC(C)C(=O)N1CCC[C@@H](NC(=O)c2sc3nccc4c3c2NC(=O)N4c2ccc(Oc3ccccc3)cc2C)C1` (stereo partly drawn) [Example 158, N-((3R)-1-(3-Methoxy-2-methylpropanoyl)piperidin-3-yl)-5-(2-methyl-4-phenoxyphenyl)-4-oxo-4,5-dihydro-3H-1-thia-3,5,8-triazaacenaphthylene-2-carboxamide], the “BTK_I_binding pIC50” value is 7.1.
Turning to `Cc1cc(Oc2ccccc2)ccc1N1C(=O)Nc2c(C(=O)N[C@@H]3CCNC3)sc3nccc1c23` [Example 159, (R)-5-(2-methyl-4-phenoxyphenyl)-4-oxo-N-(pyrrolidin-3-yl)-4,5-dihydro-3H-1-thia-3,5,8-triazaacenaphthylene-2-carboxamide], the “BTK_I_binding pIC50” value was 7.1.
As to `Cc1cc(Oc2ccccc2)ccc1N1C(=O)Nc2c(C(=O)N[C@@H]3C[C@@H](F)CN(C)C3)sc3nccc1c23` [Example 160, N-((3R,5R)-5-Fluoro-1-methylpiperidin-3-yl)-5-(2-methyl-4-phenoxyphenyl)-4-oxo-4,5-dihydro-3H-1-thia-3,5,8-triazaacenaphthylene-2-carboxamide], the “BTK_I_binding pIC50” value worked out at 6.6.
Regarding `C#CC(=O)N1CCC[C@@H](NC(=O)c2sc3nccc4c3c2NC(=O)N4c2ccc(Oc3ccccc3)cc2C)C1` [Example 161, (R)-5-(2-Methyl-4-phenoxyphenyl)-4-oxo-N-(1-propioloylpiperidin-3-yl)-4,5-dihydro-3H-1-thia-3,5,8-triazaacenaphthylene-2-carboxamide], the “BTK_I_binding pIC50” value worked out at 7.7.
For the compound `Cc1cc(Oc2ccccc2)ccc1N1C(=O)Nc2c(C(=O)NC3CCC(=O)N(C)C3)sc3nccc1c23` (stereo not drawn) [Example 162, 5-(2-Methyl-4-phenoxyphenyl)-N-(1-methyl-6-oxopiperidin-3-yl)-4-oxo-4,5-dihydro-3H-1-thia-3,5,8-triazaacenaphthylene-2-carboxamide], the “BTK_I_binding pIC50” value was determined as 6.8.
